Reference: patent US20180237441A1, “Chemical Compounds” (GlaxoSmithKline Intellectual Property (No.2) Limited, priority 2015, published 2018)

Target: T1, PERK (Homo sapiens, UniProt Q9NZJ5)
T1 sequence (Q9NZJ5 30-1116): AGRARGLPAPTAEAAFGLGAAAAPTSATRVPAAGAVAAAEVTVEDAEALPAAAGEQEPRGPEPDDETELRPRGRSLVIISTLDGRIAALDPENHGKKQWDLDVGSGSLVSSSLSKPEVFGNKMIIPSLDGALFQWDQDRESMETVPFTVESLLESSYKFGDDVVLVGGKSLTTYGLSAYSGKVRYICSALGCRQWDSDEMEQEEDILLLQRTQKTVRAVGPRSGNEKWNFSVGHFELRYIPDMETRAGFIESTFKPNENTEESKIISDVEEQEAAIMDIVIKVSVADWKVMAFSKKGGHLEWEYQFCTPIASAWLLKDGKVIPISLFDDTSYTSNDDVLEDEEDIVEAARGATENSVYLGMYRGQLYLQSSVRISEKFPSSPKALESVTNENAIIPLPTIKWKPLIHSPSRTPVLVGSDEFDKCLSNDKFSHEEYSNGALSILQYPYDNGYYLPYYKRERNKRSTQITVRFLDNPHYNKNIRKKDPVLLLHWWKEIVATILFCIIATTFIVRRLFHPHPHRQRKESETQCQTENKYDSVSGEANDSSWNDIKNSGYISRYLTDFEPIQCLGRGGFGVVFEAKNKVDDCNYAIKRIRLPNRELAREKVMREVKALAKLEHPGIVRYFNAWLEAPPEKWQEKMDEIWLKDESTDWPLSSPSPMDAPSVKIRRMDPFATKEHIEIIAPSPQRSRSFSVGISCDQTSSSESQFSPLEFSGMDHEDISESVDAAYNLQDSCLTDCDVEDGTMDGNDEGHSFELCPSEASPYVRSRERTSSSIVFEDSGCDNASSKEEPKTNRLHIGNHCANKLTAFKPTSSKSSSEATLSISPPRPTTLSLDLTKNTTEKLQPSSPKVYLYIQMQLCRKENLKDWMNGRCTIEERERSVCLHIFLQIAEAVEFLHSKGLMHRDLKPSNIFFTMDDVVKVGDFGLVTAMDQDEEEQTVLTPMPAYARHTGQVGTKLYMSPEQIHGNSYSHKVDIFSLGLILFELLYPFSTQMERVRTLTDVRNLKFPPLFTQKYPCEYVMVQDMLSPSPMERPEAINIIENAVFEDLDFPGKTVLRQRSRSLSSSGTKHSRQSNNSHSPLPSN
Test: PERK enzyme assay (HTRF)
Format: biochemical
Conditions: 500 μM ATP; at least one experimental run; read-out: PERK Enzyme (500 μM ATP) IC50
Protocol: Compounds of the invention were assayed for PERK enzyme inhibitory activity with modifications to previously reported conditions (Axten et al. J. Med. Chem., 2012, 55, 7193-7207). Briefly, various concentrations of compounds (maximum 1% DMSO) were dispensed into 384-well plates containing GST-PERK enzyme. After 30-60 minutes of compound pre-incubation, ATP and biotin-eIF2α were added and after 60 minutes the reaction was quenched. After 2 hrs, a fluorescence plate reader was used to measure inhibition and IC50s were calculated.
Enzyme Assay Protocol for PKR-Like Endoplasmic Reticulum Kinase (PERK)—HTRF —% Inhibition
Assay Buffer contains HEPES (pH7.5) 10 mM, CHAPS 2 mM, MgCl2 5 mM and DTT 1 mM in water
Detection Buffer contains HEPES (pH7.5) 10 mM and CHAPS 2 mM in water Assay Plate Preparation:
1. Enzyme Preparation: • 4× Enzyme solution was prepared immediately prior to adding to compound plates. • 3 nM of GST-PERK in Assay buffer. Final [PERK] in 10 μl assay volume=0.75 nM
2. Substrate Preparation: • 4× Substrate solution was prepared immediately prior to adding to compound plates. • 4× Substrate solution in assay buffer 2000 μM ATP and 160 nM Biotin-eIF2α • Final [ATP] in 10 μl assay volume=500 μM • Final [biotin-eIF2a] in 10 μl assay volume=40 nM.
3. Quench/Detection Solution: • 16 nM eIF2 Phospho-Antibody • 16 nM Eu anti-Rabbit IgG • 160 nM Streptavidin-APC • 60 mM EDTA • Final concentration in 10 μL assay volume: 4 nM eIF2 Phospho-Antibody, 4 nM Eu anti-Rabbit IgG 40 nM Streptavidin-APC
The activity of compounds in the PERK enzyme assay was determined at PERK Enzyme (500 μM ATP) IC50 (nM).

IC50	Structure (SMILES)
192 nM	CCN1C(=O)N(c2ccc(-c3cn(C)c4ncnc(N)c34)c(F)c2)CC1c1cc(F)cc(C(F)(F)F)c1 (single isomer, unassigned) [Example 88, 1-(4-(4-amino-7-methyl-7H-pyrrolo[2,3-d]pyrimidin-5-yl)-3-fluorophenyl)-3-ethyl-4-(3-fluoro-5-(trifluoromethyl)phenyl)imidazolidin-2-one]
3 nM	CN1C(=O)N(c2ccc(-c3cn(C)c4ncnc(N)c34)c(F)c2)CC1c1cc(F)cc(F)c1 (single isomer, unassigned) [Example 100, 1-(4-(4-amino-7-methyl-7H-pyrrolo[2,3-d]pyrimidin-5-yl)-3-fluorophenyl)-4-(3,5-difluorophenyl)-3-methylimidazolidin-2-one]
2.4 nM	CN1C(=O)N(c2ccc(-c3cn(C)c4ncnc(N)c34)c(F)c2)CC1c1ccc(F)c(F)c1 (single isomer, unassigned) [Example 115, 1-(4-(4-amino-7-methyl-7H-pyrrolo[2,3-d]pyrimidin-5-yl)-3-fluorophenyl)-4-(3,4-difluorophenyl)-3-methylimidazolidin-2-one]

Same assay, conditions: PERK Enzyme (500 μM ATP) IC50; at least one experimental run; read-out: PERK Activity

IC50	Structure (SMILES)
100 to 1000 nM	CC(C)n1cc(-c2ccc(N3CC(c4cc(F)ccc4F)N(C)C3=O)cc2F)c2c(N)ncnc21 (single isomer, unassigned) [Example 86, 1-(4-(4-amino-7-isopropyl-7H-pyrrolo[2,3-d]pyrimidin-5-yl)-3-fluorophenyl)-4-(2,5-difluorophenyl)-3-methylimidazolidin-2-one]
100 to 1000 nM	CC(C)n1cc(-c2ccc(N3CC(c4cc(F)ccc4F)N(C)C3=O)cc2F)c2c(N)ncnc21 (single isomer, unassigned) [Example 87, 1-(4-(4-amino-7-isopropyl-7H-pyrrolo[2,3-d]pyrimidin-5-yl)-3-fluorophenyl)-4-(2,5-difluorophenyl)-3-methylimidazolidin-2-one]
100 to 1000 nM	CCN1C(=O)N(c2ccc(-c3cn(C)c4ncnc(N)c34)c(F)c2)CC1c1cc(F)cc(C(F)(F)F)c1 (single isomer, unassigned) [Example 88, 1-(4-(4-amino-7-methyl-7H-pyrrolo[2,3-d]pyrimidin-5-yl)-3-fluorophenyl)-3-ethyl-4-(3-fluoro-5-(trifluoromethyl)phenyl)imidazolidin-2-one]
100 to 1000 nM	CCN1C(=O)N(c2ccc(-c3cn(C)c4ncnc(N)c34)c(F)c2)CC1c1cc(F)cc(C(F)(F)F)c1 (single isomer, unassigned) [Example 89, 1-(4-(4-amino-7-methyl-7H-pyrrolo[2,3-d]pyrimidin-5-yl)-3-fluorophenyl)-3-ethyl-4-(3-fluoro-5-(trifluoromethyl)phenyl)imidazolidin-2-one]
< 100 nM	Cc1nc(N)c2c(-c3ccc(N4CC(c5ccc(F)cc5)N(C)C4=O)cc3F)cn(C3CC3)c2n1 (single isomer, unassigned) [Example 90, 1-(4-(4-amino-7-cyclopropyl-2-methyl-7H-pyrrolo[2,3-d]pyrimidin-5-yl)-3-fluorophenyl)-4-(4-fluorophenyl)-3-methylimidazolidin-2-one]
100 to 1000 nM	Cc1nc(N)c2c(-c3ccc(N4CC(c5ccc(F)cc5F)N(C)C4=O)cc3F)cn(C(C)C)c2n1 (single isomer, unassigned) [Example 95, 1-(4-(4-amino-7-isopropyl-2-methyl-7H-pyrrolo[2,3-d]pyrimidin-5-yl)-3-fluorophenyl)-4-(2,4-difluorophenyl)-3-methylimidazolidin-2-one]
< 100 nM	CN1C(=O)N(c2ccc(-c3cn(C)c4ncnc(N)c34)c(F)c2)CC1c1cc(F)cc(F)c1 (single isomer, unassigned) [Example 100, 1-(4-(4-amino-7-methyl-7H-pyrrolo[2,3-d]pyrimidin-5-yl)-3-fluorophenyl)-4-(3,5-difluorophenyl)-3-methylimidazolidin-2-one]
100 to 1000 nM	CN1C(=O)N(c2ccc(-c3cn(C)c4ncnc(N)c34)c(F)c2)CC1c1cc(F)cc(F)c1 (single isomer, unassigned) [Example 101, 1-(4-(4-amino-7-methyl-7H-pyrrolo[2,3-d]pyrimidin-5-yl)-3-fluorophenyl)-4-(3,5-difluorophenyl)-3-methylimidazolidin-2-one]
< 100 nM	COc1cccc(C2CN(c3ccc(-c4cn(C)c5ncnc(N)c45)c(F)c3)C(=O)N2C)c1 (single isomer, unassigned) [Example 103, 1-(4-(4-amino-7-methyl-7H-pyrrolo[2,3-d]pyrimidin-5-yl)-3-fluorophenyl)-4-(3-methoxyphenyl)-3-methylimidazolidin-2-one]
< 100 nM	Cc1nc(N)c2c(-c3ccc(N4CC(c5cc(F)cc(F)c5)N(C)C4=O)cc3F)cn(C)c2n1 (single isomer, unassigned) [Example 104, 1-(4-(4-amino-2,7-dimethyl-7H-pyrrolo[2,3-d]pyrimidin-5-yl)-3-fluorophenyl)-4-(3,5-difluorophenyl)-3-methylimidazolidin-2-one]
100 to 1000 nM	Cc1nc(N)c2c(-c3ccc(N4CC(c5cncc(F)c5)N(C)C4=O)cc3F)cn(C)c2n1 (single isomer, unassigned) [Example 111, 1-(4-(4-amino-2,7-dimethyl-7H-pyrrolo[2,3-d]pyrimidin-5-yl)-3-fluorophenyl)-4-(5-fluoropyridin-3-yl)-3-methylimidazolidin-2-one]
< 100 nM	Cc1nc(C2CN(c3ccc(-c4cn(C)c5ncnc(N)c45)c(F)c3)C(=O)N2C)ccc1F (single isomer, unassigned) [Example 113, 1-(4-(4-amino-7-methyl-7H-pyrrolo[2,3-d]pyrimidin-5-yl)-3-fluorophenyl)-4-(5-fluoro-6-methylpyridin-2-yl)-3-methylimidazolidin-2-one]
< 100 nM	CN1C(=O)N(c2ccc(-c3cn(C)c4ncnc(N)c34)c(F)c2)CC1c1ccc(F)c(F)c1 (single isomer, unassigned) [Example 115, 1-(4-(4-amino-7-methyl-7H-pyrrolo[2,3-d]pyrimidin-5-yl)-3-fluorophenyl)-4-(3,4-difluorophenyl)-3-methylimidazolidin-2-one]
< 100 nM	CN1C(=O)N(c2ccc(-c3cn(C4CC4)c4ncnc(N)c34)c(F)c2)CC1c1ccc(F)c(F)c1 (single isomer, unassigned) [Example 116, 1-(4-(4-amino-7-cyclopropyl-7H-pyrrolo[2,3-d]pyrimidin-5-yl)-3-fluorophenyl)-4-(3,4-difluorophenyl)-3-methylimidazolidin-2-one]
100 to 1000 nM	CN1C(=O)N(c2ccc(-c3cn(C4CC4)c4ncnc(N)c34)c(F)c2)CC1c1ccc(F)c(F)c1 (single isomer, unassigned) [Example 117, 1-(4-(4-amino-7-cyclopropyl-7H-pyrrolo[2,3-d]pyrimidin-5-yl)-3-fluorophenyl)-4-(3,4-difluorophenyl)-3-methylimidazolidin-2-one]
100 to 1000 nM	CCN1C(=O)N(c2ccc(-c3cn(C4CC4)c4ncnc(N)c34)c(F)c2)CC1c1cc(F)ccc1F (single isomer, unassigned) [Example 123, 1-(4-(4-amino-7-cyclopropyl-7H-pyrrolo[2,3-d]pyrimidin-5-yl)-3-fluorophenyl)-4-(2,5-difluorophenyl)-3-ethylimidazolidin-2-one]
< 100 nM	CCN1C(=O)N(c2ccc(-c3cn(C4CC4)c4ncnc(N)c34)c(F)c2)CC1c1cc(F)ccc1F (single isomer, unassigned) [Example 124, 1-(4-(4-amino-7-cyclopropyl-7H-pyrrolo[2,3-d]pyrimidin-5-yl)-3-fluorophenyl)-4-(2,5-difluorophenyl)-3-ethylimidazolidin-2-one]
< 100 nM	CN1C(=O)N(c2ccc(-c3cn(C4CC4)c4ncnc(N)c34)c(F)c2)CC1c1cccc(F)c1 (single isomer, unassigned) [Example 125, 1-(4-(4-amino-7-cyclopropyl-7H-pyrrolo[2,3-d]pyrimidin-5-yl)-3-fluorophenyl)-4-(3-fluorophenyl)-3-methylimidazolidin-2-one]
< 100 nM	CN1C(=O)N(c2ccc(-c3cn(C4CC4)c4ncnc(N)c34)c(F)c2)CC1c1cccc(F)c1 (single isomer, unassigned) [Example 126, 1-(4-(4-amino-7-cyclopropyl-7H-pyrrolo[2,3-d]pyrimidin-5-yl)-3-fluorophenyl)-4-(3-fluorophenyl)-3-methylimidazolidin-2-one]
